Laboratory results as given in paper PMC9401487 (Clinical Cancer Research, 2021).
“Also recorded” adds a separate entry of the source.

System: patients with advanced solid tumors
Test: Phase I safety and tolerability
Format: in vivo, human
[1] = Cohort 3 (N=3), 40 mg BID 10 days + carboplatin
[2] = Cohort 3: 40 mg BID days 4–13 (10 days) + carboplatin AUC5, 3 patients
[3] = Cohort 4 (N=3), 40 mg BID 7 days + carboplatin
[4] = Cohort 4: 40 mg BID days 4–10 (7 days) + carboplatin AUC5, 3 patients
[5] = Cohort 5 (N=8), 60 mg QD 7 days + carboplatin

C[C@@H]1COCCN1c1cc(C2([S@](C)(=N)=O)CC2)nc(-c2cc[nH]c3nccc2-3)n1 [ceralasertib] was tested, and the “TEAE Anemia, Grade ≥3” value [1] was 0 patients, n (%), the “TEAE Any AE, Grade 1–2” value [1] was 1 (33) patients, n (%) and the “TEAE Any AE, Grade ≥3” value [1] was 2 (67) patients, n (%). For the same molecule, the “TEAE Arthralgia, Grade 1–2” value [1] was 0 patients, n (%), the “TEAE Arthralgia, Grade ≥3” value [1] was 0 patients, n (%) and the “TEAE Aspartate aminotransferase increased, Grade 1–2” value [1] was 0 patients, n (%). For the same molecule, the “TEAE Aspartate aminotransferase increased, Grade ≥3” value [1] was 0 patients, n (%), the “TEAE Constipation, Grade 1–2” value [1] was 1 (33) patients, n (%) and the “TEAE Constipation, Grade ≥3” value [1] was 0 patients, n (%). For the same molecule, the “TEAE Contusion, Grade 1–2” value [1] was 2 (67) patients, n (%), the “TEAE Contusion, Grade ≥3” value [1] was 0 patients, n (%) and the “TEAE Cough, Grade 1–2” value [1] was 0 patients, n (%). For the same molecule, the “TEAE Cough, Grade ≥3” value [1] was 0 patients, n (%), the “TEAE Decreased appetite, Grade 1–2” value [1] was 1 (33) patients, n (%) and the “TEAE Decreased appetite, Grade ≥3” value [1] was 0 patients, n (%). For the same molecule, the “TEAE Diarrhea, Grade 1–2” value [1] was 0 patients, n (%), the “TEAE Diarrhea, Grade ≥3” value [1] was 0 patients, n (%) and the “TEAE Dizziness, Grade 1–2” value [1] was 0 patients, n (%). For the same molecule, the “TEAE Dizziness, Grade ≥3” value [1] was 0 patients, n (%), the “TEAE Dyspnea, Grade 1–2” value [1] was 0 patients, n (%) and the “TEAE Dyspnea, Grade ≥3” value [1] was 0 patients, n (%). For the same molecule, the “TEAE Fatigue, Grade 1–2” value [1] was 1 (33) patients, n (%), the “TEAE Fatigue, Grade ≥3” value [1] was 0 patients, n (%) and the “TEAE Hypocalcemia, Grade 1–2” value [1] was 0 patients, n (%). The “TEAE Hypocalcemia, Grade ≥3” value [1] was 0 patients, n (%), the “TEAE Insomnia, Grade 1–2” value [1] was 1 (33) patients, n (%) and the “TEAE Insomnia, Grade ≥3” value [1] was 0 patients, n (%). The “TEAE Lower respiratory tract infection, Grade 1–2” value [1] was 0 patients, n (%), the “TEAE Lower respiratory tract infection, Grade ≥3” value [1] was 0 patients, n (%) and the “TEAE Nausea, Grade 1–2” value [1] was 0 patients, n (%). For the same molecule, the “TEAE Nausea, Grade ≥3” value [1] was 0 patients, n (%), the “TEAE Neutropenia, Grade 1–2” value [1] was 1 (33) patients, n (%) and the “TEAE Neutropenia, Grade ≥3” value [1] was 2 (67) patients, n (%). The “TEAE Neutrophil count decreased, Grade 1–2” value [1] was 0 patients, n (%), the “TEAE Neutrophil count decreased, Grade ≥3” value [1] was 0 patients, n (%) and the “TEAE Platelet count decreased, Grade 1–2” value [1] was 1 (33) patients, n (%). For the same molecule, the “TEAE Platelet count decreased, Grade ≥3” value [1] was 0 patients, n (%), the “TEAE Pyrexia, Grade 1–2” value [1] was 0 patients, n (%) and the “TEAE Pyrexia, Grade ≥3” value [1] was 0 patients, n (%). The “TEAE Thrombocytopenia, Grade 1–2” value [1] was 1 (33) patients, n (%), the “TEAE Thrombocytopenia, Grade ≥3” value [1] was 2 (67) patients, n (%) and the “TEAE Upper respiratory tract infection, Grade 1–2” value [1] was 0 patients, n (%). For the same molecule, the “TEAE Upper respiratory tract infection, Grade ≥3” value [1] was 0 patients, n (%), the “TEAE Vomiting, Grade 1–2” value [1] was 0 patients, n (%) and the “TEAE Vomiting, Grade ≥3” value [1] was 0 patients, n (%). For the same molecule, the “TEAE White blood cell count decreased, Grade 1–2” value [1] was 0 patients, n (%), the “TEAE White blood cell count decreased, Grade ≥3” value [1] was 0 patients, n (%) and the “Number of DLTs” value [2] was “no DLTs”. For the same molecule, the “SRC decision (tolerability)” value [2] was “declared intolerable; also recorded: Not tolerated”, the “TEAE Abdominal pain, Grade 1–2” value [3] was 1 (33) patients, n (%) and the “TEAE Abdominal pain, Grade ≥3” value [3] was 0 patients, n (%). For the same molecule, the “TEAE Alanine aminotransferase increased, Grade 1–2” value [3] was 1 (33) patients, n (%), the “TEAE Alanine aminotransferase increased, Grade ≥3” value [3] was 0 patients, n (%) and the “TEAE Anemia, Grade 1–2” value [3] was 1 (33) patients, n (%). The “TEAE Anemia, Grade ≥3” value [3] was 1 (33) patients, n (%), the “TEAE Any AE, Grade 1–2” value [3] was 0 patients, n (%) and the “TEAE Any AE, Grade ≥3” value [3] was 3 (100) patients, n (%). For the same molecule, the “TEAE Arthralgia, Grade 1–2” value [3] was 0 patients, n (%), the “TEAE Arthralgia, Grade ≥3” value [3] was 0 patients, n (%) and the “TEAE Aspartate aminotransferase increased, Grade 1–2” value [3] was 0 patients, n (%). For the same molecule, the “TEAE Aspartate aminotransferase increased, Grade ≥3” value [3] was 0 patients, n (%), the “TEAE Constipation, Grade 1–2” value [3] was 1 (33) patients, n (%) and the “TEAE Constipation, Grade ≥3” value [3] was 0 patients, n (%). For the same molecule, the “TEAE Contusion, Grade 1–2” value [3] was 0 patients, n (%), the “TEAE Contusion, Grade ≥3” value [3] was 0 patients, n (%) and the “TEAE Cough, Grade 1–2” value [3] was 0 patients, n (%). For the same molecule, the “TEAE Cough, Grade ≥3” value [3] was 0 patients, n (%), the “TEAE Decreased appetite, Grade 1–2” value [3] was 1 (33) patients, n (%) and the “TEAE Decreased appetite, Grade ≥3” value [3] was 0 patients, n (%). For the same molecule, the “TEAE Diarrhea, Grade 1–2” value [3] was 0 patients, n (%), the “TEAE Diarrhea, Grade ≥3” value [3] was 0 patients, n (%) and the “TEAE Dizziness, Grade 1–2” value [3] was 1 (33) patients, n (%). For the same molecule, the “TEAE Dizziness, Grade ≥3” value [3] was 0 patients, n (%), the “TEAE Dyspnea, Grade 1–2” value [3] was 0 patients, n (%) and the “TEAE Dyspnea, Grade ≥3” value [3] was 0 patients, n (%). The “TEAE Fatigue, Grade 1–2” value [3] was 1 (33) patients, n (%), the “TEAE Fatigue, Grade ≥3” value [3] was 0 patients, n (%) and the “TEAE Hypocalcemia, Grade 1–2” value [3] was 0 patients, n (%). For the same molecule, the “TEAE Hypocalcemia, Grade ≥3” value [3] was 0 patients, n (%), the “TEAE Insomnia, Grade 1–2” value [3] was 0 patients, n (%) and the “TEAE Insomnia, Grade ≥3” value [3] was 0 patients, n (%). For the same molecule, the “TEAE Lower respiratory tract infection, Grade 1–2” value [3] was 0 patients, n (%), the “TEAE Lower respiratory tract infection, Grade ≥3” value [3] was 0 patients, n (%) and the “TEAE Nausea, Grade 1–2” value [3] was 2 (67) patients, n (%). The “TEAE Nausea, Grade ≥3” value [3] was 0 patients, n (%), the “TEAE Neutropenia, Grade 1–2” value [3] was 1 (33) patients, n (%) and the “TEAE Neutropenia, Grade ≥3” value [3] was 1 (33) patients, n (%). For the same molecule, the “TEAE Neutrophil count decreased, Grade 1–2” value [3] was 0 patients, n (%), the “TEAE Neutrophil count decreased, Grade ≥3” value [3] was 1 (33) patients, n (%) and the “TEAE Platelet count decreased, Grade 1–2” value [3] was 0 patients, n (%). For the same molecule, the “TEAE Platelet count decreased, Grade ≥3” value [3] was 0 patients, n (%), the “TEAE Pyrexia, Grade 1–2” value [3] was 1 (33) patients, n (%) and the “TEAE Pyrexia, Grade ≥3” value [3] was 0 patients, n (%). For the same molecule, the “TEAE Thrombocytopenia, Grade 1–2” value [3] was 0 patients, n (%), the “TEAE Thrombocytopenia, Grade ≥3” value [3] was 3 (100) patients, n (%) and the “TEAE Upper respiratory tract infection, Grade 1–2” value [3] was 0 patients, n (%). The “TEAE Upper respiratory tract infection, Grade ≥3” value [3] was 0 patients, n (%), the “TEAE Vomiting, Grade 1–2” value [3] was 0 patients, n (%) and the “TEAE Vomiting, Grade ≥3” value [3] was 0 patients, n (%). The “TEAE White blood cell count decreased, Grade 1–2” value [3] was 0 patients, n (%), the “TEAE White blood cell count decreased, Grade ≥3” value [3] was 1 (33) patients, n (%) and the “Number of DLTs” value [4] was “a DLT of grade 4 thrombocytopenia and grade 3 neutropenia”. For the same molecule, the “SRC decision (tolerability)” value [4] was “declared intolerable; also recorded: Not tolerated”, the “TEAE Abdominal pain, Grade 1–2” value [5] was 1 (13) patients, n (%) and the “TEAE Abdominal pain, Grade ≥3” value [5] was 0 patients, n (%). For the same molecule, the “TEAE Alanine aminotransferase increased, Grade 1–2” value [5] was 0 patients, n (%), the “TEAE Alanine aminotransferase increased, Grade ≥3” value [5] was 1 (13) patients, n (%) and the “TEAE Anemia, Grade 1–2” value [5] was 3 (38) patients, n (%). For the same molecule, the “TEAE Anemia, Grade ≥3” value [5] was 3 (38) patients, n (%), the “TEAE Any AE, Grade 1–2” value [5] was 4 (50) patients, n (%) and the “TEAE Any AE, Grade ≥3” value [5] was 4 (50) patients, n (%).
